Test results as given in patent US6033823A, “Mutated penicillin G acylase genes” (priority 1994, dated 2000).

Biological target: T1, Alcaligenes faecalis Penicillin G acylase mutant B:L56K (Alcaligenes faecalis, UniProt O34142, L321K)
T1 construct: alpha 202 aa, beta 551 aa; recombinant, E. coli host
T1 sequence (O34142 27-228): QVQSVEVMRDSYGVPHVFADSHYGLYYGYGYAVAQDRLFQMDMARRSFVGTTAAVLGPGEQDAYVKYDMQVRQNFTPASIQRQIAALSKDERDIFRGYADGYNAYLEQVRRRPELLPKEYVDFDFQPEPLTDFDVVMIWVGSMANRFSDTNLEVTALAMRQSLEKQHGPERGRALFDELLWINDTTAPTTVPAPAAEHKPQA
T1 sequence (O34142 266-816 L321K): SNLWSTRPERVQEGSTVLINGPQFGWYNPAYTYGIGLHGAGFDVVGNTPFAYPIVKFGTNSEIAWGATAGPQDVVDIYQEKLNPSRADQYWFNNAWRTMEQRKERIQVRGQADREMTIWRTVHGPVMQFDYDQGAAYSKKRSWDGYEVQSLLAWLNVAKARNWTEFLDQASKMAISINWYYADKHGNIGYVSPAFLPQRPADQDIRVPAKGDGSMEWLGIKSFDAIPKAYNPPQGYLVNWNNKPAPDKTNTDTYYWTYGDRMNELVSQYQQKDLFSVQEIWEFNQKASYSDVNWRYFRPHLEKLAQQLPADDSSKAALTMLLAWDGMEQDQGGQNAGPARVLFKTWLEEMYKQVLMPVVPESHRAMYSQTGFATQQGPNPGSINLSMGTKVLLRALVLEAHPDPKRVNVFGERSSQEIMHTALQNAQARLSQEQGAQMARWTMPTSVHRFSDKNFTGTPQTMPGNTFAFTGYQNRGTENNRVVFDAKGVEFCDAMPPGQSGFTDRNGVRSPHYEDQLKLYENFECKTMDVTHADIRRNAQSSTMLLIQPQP
Assay: Deacylation kinetics and phenylacetic acid product inhibition, mutant B:L56K
Assay type: biochemical
Conditions: from progress curves of NIPAB deacylation, 25° C., 0.1 M NaH2PO4.H2O buffer pH 7.5, read-out: Ki Phenylacetic acid (inhibition constant, dissociation constant)
Description: In order to determine enzymatic activity the acylases were incubated with substrate at room temperature in buffered solution. In case β-lactamase impurity was expected to be present in the enzyme preparations, 1.0 mM -lactamase inhibitor 6-bromo-penicillanic acid was added to the assay. The reactions were stopped by adding an excess PMSF. For some mutants which were less sensitive to PMSF inhibition, the reactions were stopped by adding 0.5 M HCl or 0.5 M acetic acid until the pH was between 3 and 4. When reactions were subsequently analysed by HPLC, the reactions were stopped by dilution with the correponding elution solvent (see table 1). […]
The composition of the reaction mixtures was determined by high-performanceliquid chromatography (HPLC)(table 1). Concentrations were determined by using standards of known concentration.
In a continuous assay Penicillin G acylase was assayed spectro-fotometrically with the chromogenic substrate NIPAB [6-nitro-3-phenylacetamido-benzoic acid]. The liberation of 3-amino-6-nitrobenzoic acid was monitored by measuring the extinction at 405 nm in a Kontron 610 kinetic spectrofotometer. […]
Initial rate measurements were performed with excess substrate over the enzyme. Catalytic parameters were derived from least-squares fitting of the measured initial rates plotted for various substrate concentrations according to the Michaelis-Menten equation. […]

Question: With `O=C(O)Cc1ccccc1` [phenylacetic acid] as the molecule, how does the Ki read?
Answer: 115 µM
